Measured values reported in patent US7696240B2, “Fused pyrrole derivatives” (Hoffmann-La Roche Inc., priority 2005, dated 2010).

These compounds were tested against T1, Chymase purified form human skin mast cells (Homo sapiens, UniProt P23946) (assay: chymase peptide substrate (AAPF-AMC) fluorescence assay). Conditions: 0.02 mM AAPF-substrate, 0.1 nM Chymase, pH 7.4, room temperature, 30 min pre-incubation.
T1 construct: Chymase purified form human skin mast cells was obtained from Calbiochem; purchased Calbiochem (Merck Biosciences, San Diego, Calif., USA); host or cells: human skin mast cells (natural source)
T1 sequence (P23946 22-247): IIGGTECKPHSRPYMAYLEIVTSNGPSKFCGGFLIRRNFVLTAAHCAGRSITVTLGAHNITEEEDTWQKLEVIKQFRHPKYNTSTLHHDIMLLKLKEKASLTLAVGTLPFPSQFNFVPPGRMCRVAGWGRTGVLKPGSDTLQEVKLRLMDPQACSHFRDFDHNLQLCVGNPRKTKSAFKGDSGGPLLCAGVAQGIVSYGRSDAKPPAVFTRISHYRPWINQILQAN
Format: biochemical
Experimental: The peptide was synthesized with a purity of 95% from Bachem, Bubendorf, Switzerland). Chymase purified form human skin mast cells was obtained from Calbiochem (Merck Biosciences, San Diego, Calif., USA). The assay buffer was 0.15 M NaCl, 0.05M, Tris HCl, 0.05% CHAPS (3-[(3-Cholamidopropyl)-dimethylammonio]-1-propane sulphonate), 0.1 mg/ml Heparin (Heparin sodium, Sigma, porcine intestinal mucosa), 0.02 mM AAPF-substrate, 0.1 nM Chymase at pH 7.4. The assay was performed in 96-well plates (Packard Optiplate), with a 0.05 ml volume at room temperature. Chymase activity was indicated by the initial rate of increase in fluorescence at 340/440 nm (excitation/emission) from free 7-amino-4-methylcoumarin released from the substrate. Inhibition of the activity by inhibitory compounds was read after 30 min pre-incubation with the chymase at room temperature in assay buffer without AAPF-substrate. The assay was then started by addition of the indicated concentration of AAPF-substrate.

Row | SMILES | IC50 [nM]
1 | O=C(O)Cc1c(C(=O)O)n(Cc2cccc3ccccc23)c2ccccc12 [Example 5, 3-Carboxymethyl-1-naphthalen-1-ylmethyl-1H-indole-2-carboxylic acid] | 37
2 | O=C(O)c1cc2ccccc2n1Cc1cccc2ccc(F)cc12 [Example 49, 1-(7-Fluoro-naphthalen-1-ylmethyl)-1H-indole-2-carboxylic acid] | 17
3 | O=C(O)c1cc2ccccc2n1Cc1csc2ccc(F)cc12 [Example 55, 1-(5-Fluoro-benzo[b]thiophen-3-ylmethyl)-1H-indole-2-carboxylic acid] | 30

The remaining lines, values ahead:

Row | IC50 [nM] | SMILES
4 | 38 | Cc1ccc(C(=O)NCc2c(C(=O)O)n(Cc3cccc4ccccc34)c3ccccc23)cc1 [Example 10, 3-[(4-Methyl-benzoylamino)-methyl]-1-naphthalen-1-ylmethyl-1H-indole-2-carboxylic acid]
5 | 0.8 | CS(=O)(=O)NCc1c(C(=O)O)n(Cc2cccc3ccc(F)cc23)c2ccccc12 [Example 105, 1-(7-Fluoro-naphthalen-1-ylmethyl)-3-(methanesulfonylamino-methyl)-1H-indole-2-carboxylic acid]
6 | 0.2 | COC(=O)N(C)Cc1c(C(=O)O)n(Cc2cccc3ccc(F)cc23)c2ccccc12 [Example 106, 1-(7-Fluoro-naphthalen-1-ylmethyl)-3-[(methoxycarbonyl-methyl-amino)-methyl]-1H-indole-2-carboxylic acid]
7 | 1 | COC(=O)N(C)Cc1c(C(=O)O)n(Cc2csc3ccc(F)cc23)c2ccccc12 [Example 117, 1-(5-Fluoro-benzo[b]thiophen-3-ylmethyl)-3-[(methoxycarbonyl-methyl-amino)-methyl]-1H-indole-2-carboxylic acid]
